From patent publication US6596289B1, “Anti-cellulite pantyhose” (priority 1998, dated 2003)

Experiment: Extraction and measurement of candidate molecules from loaded pantyhose in buffer
Format: physicochemical
Conditions: for bonding to the fabric: conclusion from data of Table I; for Micrograms per/cm^2 @ 2 hr (amount extracted) / Micrograms per/cm @ 4 hr (amount extracted): swatch of treated fabric immersed in buffer solution; for Micrograms per/cm @ 4 hr (amount extracted): four hours
Description: Step 1: Determining UV Max Absorbance nm of Test Substances
Prepare 0.2% aqueous solutions of the substance to be tested, and run a UV/VIS scan on a scanning spectrophotometer. Note the peak absorbance level of the scan. The wave length at which this occurs is the UV Max value for that candidate.
Step 2: Running Standard Curves of Candidate Molecules
Prepare standards of the test substances at the following concentrations: 400 uM, 200 uM, 100 uM, 50 uM and 25 uM. Read at the appropriate wavelength. Plot the absorbance readings vs candidate concentration to check linearity.
Step 3: Loading Pantyhose with Candidate Molecules a. Wash pantyhose two times with water. b. Treat pantyhose with 1% solution of polyethylenimine (PEI) with constant agitation for 30 minutes. c. Wash pantyhose with water. d. Treat pantyhose with 0.2% of the test substance with constant agitation for three hours. e. Wash pantyhose and allow to dry.
Step 4: Extraction and Measurement of Candidate Molecules from Pantyhose Six sections were removed from each pair of hose, two sections from each of the foot, calf and thigh. A two piece, interlocking circular template was used. This template provided a way to obtain consistent sample size and also held the hose sections in position for sample extraction. Each template containing the pantyhose section was placed in 10 ml of buffer for 4 hours. An untreated pair of pantyhose was used as the blank and tested the same as the samples. At the end of two hours, and again at 4 hours, the buffer solution was read at the appropriate wave length using a quartz curette. Results were calculated from the standard curve and reported in micrograms/square centimeter (ug/cm^2).

bonding to the fabric | Micrograms per/cm^2 @ 2 hr (amount extracted) [Micrograms per/cm^2] | Micrograms per/cm @ 4 hr (amount extracted) [Micrograms per/cm] | SMILES
bind in adequate degrees | 0.6 | 0.7 | O=C1O[C@H]([C@@H](O)CO)C(O)=C1O [Ascorbic Acid, ascorbic acid]
bind in adequate degrees | 1.2 | 1.5 | O=C(O)CCCC[C@@H]1CCSS1 (racemic) [Lipoic Acid, lipoic acid]
most strongly bonded | 15.0 | 15.1 | O=c1c(-c2ccc(O)cc2)coc2cc(O)cc(O)c12 [Genistein, 4′,5,7-trihydroxyisoflavone]
